According to paper PMC2954514 (Molecular cancer therapeutics, 2010):
“And” between values parts separate entries of the source, which are not always exact repeats. Identical values can stand only once. Like-named read-outs stand apart in the source and are kept apart here.

Tests used:
[1] = target: Bovine brain microtubule protein (MTP, tubulin and microtubule-associated proteins) (Bos taurus, UniProt Q6B856); test: Inhibition of microtubule polymerization; type: biochemical; conditions: for reduction of microtubule polymer mass: 100 nmol/L compound
Bovine brain microtubule protein (MTP, tubulin and microtubule-associated proteins), sequence (P81947 whole entry): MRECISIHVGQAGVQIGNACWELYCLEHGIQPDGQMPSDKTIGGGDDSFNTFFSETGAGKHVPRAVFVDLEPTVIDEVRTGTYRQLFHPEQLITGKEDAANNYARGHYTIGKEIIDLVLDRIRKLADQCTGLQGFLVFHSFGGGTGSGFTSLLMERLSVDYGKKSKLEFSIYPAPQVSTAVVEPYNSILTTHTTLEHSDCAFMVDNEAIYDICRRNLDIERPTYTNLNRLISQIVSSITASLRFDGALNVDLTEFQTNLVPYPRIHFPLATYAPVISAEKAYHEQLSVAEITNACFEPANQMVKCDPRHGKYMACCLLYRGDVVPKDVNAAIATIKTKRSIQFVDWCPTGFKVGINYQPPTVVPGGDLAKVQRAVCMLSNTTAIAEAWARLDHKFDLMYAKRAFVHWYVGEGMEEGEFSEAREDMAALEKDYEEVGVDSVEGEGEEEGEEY
Bovine brain microtubule protein (MTP, tubulin and microtubule-associated proteins), sequence (Q6B856 whole entry): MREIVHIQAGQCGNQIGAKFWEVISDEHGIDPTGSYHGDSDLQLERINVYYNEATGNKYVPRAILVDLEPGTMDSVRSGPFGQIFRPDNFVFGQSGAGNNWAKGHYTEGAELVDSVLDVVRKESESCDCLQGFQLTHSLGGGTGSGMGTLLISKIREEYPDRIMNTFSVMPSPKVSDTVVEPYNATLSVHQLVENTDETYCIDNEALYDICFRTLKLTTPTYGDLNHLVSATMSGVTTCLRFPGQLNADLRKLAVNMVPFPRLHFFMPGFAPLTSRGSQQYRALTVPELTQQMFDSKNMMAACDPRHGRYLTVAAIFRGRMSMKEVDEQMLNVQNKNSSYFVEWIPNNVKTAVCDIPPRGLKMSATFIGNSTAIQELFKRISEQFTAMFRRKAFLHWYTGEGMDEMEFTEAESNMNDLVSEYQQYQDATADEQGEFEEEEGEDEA

[2] = target: MAP-free bovine brain microtubules (Bos taurus, UniProt Q6B856); test: Microtubule dynamic instability at plus ends; type: biochemical; conditions: for Dynamicity, Percent Change (suppression of dynamic instability): 0.1 μmol/L (100 nmol/L) compound vs control; for Dynamicity, Percent Change (suppression of dynamic instability) / Catastrophe Frequency, Percent Change / Growing Lengths, Percent Change / Percent Time Shortening, Percent Change / Rescue Frequency, Percent Change / Shortening Lengths, Percent Change / Shortening Rates, Percent Change / Growing Rates, Percent Change / Percent Time Growing, Percent Change: (−) decrease; for Catastrophe Frequency / Dynamicity / Percent Time Attenuated / Percent Time Growing / Percent Time Shortening / Rescue Frequency / Growing Lengths / Shortening Lengths / Shortening Rates / Growing Rates: 0.1 μmol/L compound; for Percent Time Attenuated (pause), Percent Change / Catastrophe Frequency, Percent Change / Growing Lengths, Percent Change / Percent Time Shortening, Percent Change / Rescue Frequency, Percent Change / Shortening Lengths, Percent Change / Shortening Rates, Percent Change / Growing Rates, Percent Change / Percent Time Growing, Percent Change: 0.1 μmol/L compound vs control; for Percent Time Attenuated (pause), Percent Change / Growing Rates, Percent Change / Percent Time Growing, Percent Change: (+) increase; for Growing Lengths / Shortening Lengths / Shortening Rates / Growing Rates: mean ± SEM; for Growing Rates: plus ends, steady state
MAP-free bovine brain microtubules, sequence (Q6B856 whole entry): as above
MAP-free bovine brain microtubules, sequence (P81947 whole entry partner): as the sequence (P81947 whole entry) above

[3] = target: soluble bovine brain tubulin (Bos taurus, UniProt Q6B856); test: Binding to soluble tubulin
soluble bovine brain tubulin, sequence (P81947 whole entry): as above
soluble bovine brain tubulin, sequence (Q6B856 whole entry): as the sequence (Q6B856 whole entry) above

[4] = test system: Bovine brain microtubule protein (MTP); test: Electron microscopy of polymers formed; type: biochemical
rat brain tubulin = conditions: read-out: KD for tubulin reported previously; cited from earlier work
[5] = target: steady-state microtubules (MAP-rich); test: Binding of [3H]S-methyl DM1 to steady-state microtubules; design: species or system bovine
microtubules [6] = conditions: cited from earlier work
microtubules [7] = conditions: cited from earlier work; remark: listed apart in the source
metastatic breast cancer = conditions: Phase II, patients with metastatic breast cancer; cited from earlier work
[8] = 20 μmol/L compound (maytansine: 4 μmol/L and 20 μmol/L)

Compound | Dynamicity, Percent Change (suppression of dynamic instability) [2] | Catastrophe Frequency [2] | Dynamicity [2] | Percent Time Attenuated [2] | Percent Time Growing [2] | Percent Time Shortening [2] | Rescue Frequency [2] | Percent Time Attenuated (pause), Percent Change [2] | Catastrophe Frequency, Percent Change [2] | Growing Lengths, Percent Change [2] | Percent Time Shortening, Percent Change [2] | Rescue Frequency, Percent Change [2] | Shortening Lengths, Percent Change [2] | Shortening Rates, Percent Change [2] | Growing Rates, Percent Change [2] | Percent Time Growing, Percent Change [2] | Growing Lengths [2] | Shortening Lengths [2] | Shortening Rates [2] | Growing Rates [2] | also measured
COc1cc2cc(c1Cl)N(C)C(=O)C[C@H](OC(=O)[C@H](C)N(C)C(C)=O)[C@]1(C)O[C@H]1[C@H](C)[C@@H]1C[C@@](O)(NC(=O)O1)[C@H](OC)/C=C/C=C(\C)C2 [Maytansine, reference compound] | 45 (−) % | 0.21 per min | 0.72 | 65% | 24% | 11% | 0.60 per min | 5 (+) % | 30 (−) % | 37 (−) % | 26 (−) % | 40% and 40 (−) % | 40 (−) % | 35% and 35 (−) % | 35% and 35 (−) % | 3.4 (+) % | 1.2 ± 0.1 μm/event | 1.8 ± 0.9 μm/event | 5.8 ± 0.5 μm/min | 1.1 ± 0.2 μm/min | inhibition at 0.1 µM ([1]; read-out: reduction of microtubule polymer mass): 20%; Dynamicity, Percent Change (suppression of dynamic instability) ([2]; listed as maytansine): 45%; Percent Time Attenuated (pause), Percent Change ([2]; listed as maytansine): negligible effect; Catastrophe Frequency, Percent Change ([2]; listed as maytansine): 30%; Shortening Lengths, Percent Change ([2]; listed as maytansine): 40%; Kd [3]: 860 ± 200 nM; polymer morphology by electron microscopy ([4]; 2 μmol/L compound): very few microtubules and no aggregates; polymer morphology by electron microscopy [4, 8]: no microtubules or aggregates; Kd (rat brain tubulin): 700 nM
COc1cc2cc(c1Cl)N(C)C(=O)C[C@H](OC(=O)[C@H](C)N(C)C(=O)CCSC)[C@]1(C)O[C@H]1[C@H](C)[C@@H]1C[C@@](O)(NC(=O)O1)[C@H](OC)/C=C/C=C(\C)C2 [S-methyl DM1, N^2'-deacetyl-N^2'-(3-thiomethyl-1-oxopropyl)-maytansine] | 84% and 84 (−) % | 0.03 per min | 0.21 | 87.4% | 7.3% | 5.4% | 0.56 per min | 41% and 41 (+) % | 90% and 90 (−) % | 47 (−) % | 64 (−) % | 44 (−) % | 60% and 60 (−) % | 70% and 70 (−) % | 24 (−) % | 70 (−) % | 1 ± 0.1 μm/event | 1.2 ± 0.2 μm/event | 2.7 ± 0.9 μm/min | 1.3 ± 0.4 μm/min | reduction of microtubule polymer mass [1]: less than 3%; concentration showing nearly complete inhibition of microtubule polymerization ([1]; MTP 3 mg/mL, 30°C): 20 µmol/L; suppression of dynamicity (change) ([2]; 20 nmol/L, data not shown): ~ 6%; Kd ([3]; read-out: equilibrium dissociation constant (KD) for soluble tubulin, 3 μmol/L tubulin, PEM buffer, 45 min, 30°C): 930 nM and 900 nM; KD of low affinity sites, fold higher than high affinity sites [5]: 20 fold; binding to high affinity sites on microtubules, fold more strongly than vinblastine [5]: 20 fold and 19 fold; number of low affinity sites [5]: several hundred; molecules bound per microtubule ([5]; 0.1 μmol/L (100 nmol/L)): 19 ± 1 and 19; mean length of the microtubules ([5]; 500 nmol/L – 4 μmol/L, standard deviation 4.5 μm): 13.9–14.1 μm; molecules bound per microtubule or sedimentable aggregate ([5]; 1 μmol/L): approximately 105; molecules bound per microtubule or sedimentable aggregate ([5]; 4 μmol/L): 210 ± 37 and ~210; number of high affinity sites per microtubule ([5]; Scatchard X-intercept): 37; mean length of the microtubules ([5]; between 0 and 100 nmol/L, maximum standard deviation 4 μm): 14.4–14.5 μm; molecules bound to sedimentable polymer, per microtubule ([5]; concentrations ≥500 nmol/L): 60–210; decrease of microtubule polymer mass ([5]; pre-assembled MAP-rich microtubules, 1 h, any concentration (0 – 4 μM)): less than 4%; Kd ([5]; read-out: KD, high affinity sites on microtubules, low drug concentrations (10 nmol/L – 100 nmol/L)): 100 ± 50 nM; Kd ([5]; read-out: KD, low affinity sites on microtubules and sedimentable aggregates, higher drug concentrations (0.1 μmol/L to 4 μmol/L)): 2200 ± 200 nM; concentrations inducing tubulin aggregates detectable by electron microscopy [4]: ≥ 2 µmol/L; polymer morphology by electron microscopy ([4]; 2 μmol/L compound): a small number of small aggregates along with the microtubules; polymer morphology by electron microscopy [4, 8]: an increase in aggregate formation
COc1cc2cc(c1Cl)N(C)C(=O)C[C@H](OC(=O)[C@H](C)N(C)C(=O)CCC(C)(C)SC)[C@]1(C)O[C@H]1[C@H](C)[C@@H]1C[C@@](O)(NC(=O)O1)[C@H](OC)/C=C/C=C(\C)C2 [S-methyl DM4, N^2'-deacetyl-N^2'-(4-thiomethyl-4-methyl-1-oxopentyl)-maytansine] | 73% and 73 (−) % | 0.03 per min | 0.35 | 80.6% | 15.2% | 4.2% | 0.50 per min | 30% and 30 (+) % | 90% and 90 (−) % | 16 (−) % | 72 (−) % | 50 (−) % | 60% and 60 (−) % | 56% and 56 (−) % | 24 (−) % | 34 (−) % | 1.6 ± 0.1 μm/event | 1.2 ± 0.2 μm/event | 3.9 ± 0.4 μm/min | 1.3 ± 0.3 μm/min | reduction of microtubule polymer mass [1]: less than 3%; plateau inhibition of polymerization ([1]; between 10 μmol/L and 20 μmol/L): 75%; plateau of sedimentable polymer, % of the control polymer mass ([1]; between 10 and 20 μmol/L): 25%; concentrations inducing tubulin aggregates detectable by electron microscopy [4]: ≥ 2 µmol/L; polymer morphology by electron microscopy ([4]; 2 μmol/L compound): aggregates as well as both normal and also some imperfect, ragged microtubules with loose protofilamentous structure; polymer morphology by electron microscopy [4, 8]: more extensive aggregation of tubulin occurred with no intact microtubules
C=C1C[C@@H]2CC[C@@]34C[C@H]5O[C@H]6[C@@H](O3)[C@H]3O[C@H](CC[C@@H]3O[C@H]6[C@H]5O4)CC(=O)C[C@@H]3[C@@H](OC)[C@@H](C[C@H](O)CN)O[C@H]3C[C@H]3O[C@@H](CC[C@@H]1O2)C[C@@H](C)C3=C [eribulin] | – | – | – | – | – | – | – | – | – | – | – | – | – | – | – | – | – | – | – | – | high affinity binding sites per microtubule (microtubules [6]): 14.7 ±1.3
CC[C@]1(O)C[C@@H]2CN(CCc3c([nH]c4ccccc34)[C@@](C(=O)OC)(c3cc4c(cc3OC)N(C)[C@H]3[C@@](O)(C(=O)OC)[C@H](OC(C)=O)[C@]5(CC)C=CCN6CC[C@]43[C@@H]65)C2)C1 [vinblastine] | – | – | – | – | – | – | – | – | – | – | – | – | – | – | – | – | – | – | – | – | high affinity binding sites per microtubule (microtubules [6]): 16.8 ± 4.3; suppression of catastrophe frequency (microtubules [7]; 100 nmol/L): ~ 30%; suppression of growth rate (microtubules [7]; 100 nmol/L): 34%; suppression of shortening rate (microtubules [7]; 100 nmol/L): 47%; enhancement of rescue frequency (microtubules [7]): ~ 200%
trastuzumab-DM1 | – | – | – | – | – | – | – | – | – | – | – | – | – | – | – | – | – | – | – | – | interim overall response rate (metastatic breast cancer): 39%
